Consider 14 compounds from ChEMBL document CHEMBL3259698, “Reductions in log P improved protein binding and clearance predictions enabling the prospective design of cannabinoid receptor (CB1) antagonists with desired pharmacokinetic properties” (J Med Chem, 2013).

As usually defined, the Ki is a dissociation constant, usually derived from enzyme kinetics or from competition with a known ligand. Usually logP stands for the decadic logarithm of the partition coefficient of the neutral form, usually between octanol and water. Usually fraction unbound stands for free concentration divided by total concentration. By bioavailability is commonly meant dose-corrected exposure relative to a reference, in per cent. What is called IC50 is the concentration at which inhibition is half-maximal. What is called solubility is how much of the substance goes into solution per volume.

In brackets after ≈: the same amount, converted by molar mass. Bounds are passed on as bounds.

The target in data set [1] is Cannabinoid receptor 1 (Homo sapiens, UniProt P21554). Kind of data set: Binding affinity to human CB1 receptor expressed in CHO cells by radioligand displacement based scintillation counting analysis. Type of data set: cell-based.
The subject of data set [2] is Liver microsome. Nature of the data set: Clearance in rat liver microsomes at 1 to 3 uM after 20 mins by LC/MS/MS analysis.
Data set [3] is described as follows: Lipophilicity, log P of the compound by HPLC analysis. Type of data set: physicochemical.
A short description of data set [4]: Elimination half life in iv dosed dog. The data set is classed as ADME, organism-based, Canis lupus familiaris. The conditions noted are these: in vivo, read-out: beta t1/2 (converted).
Data set [5] is described as follows: Fraction unbound in rat plasma at 10 uM by equilibrium dialysis method. The data set is classed as ADME, cell-free.
The nature of data set [6]: Elimination half life in iv dosed cynomolgus monkey. The data set is classed as ADME, organism-based, Macaca fascicularis. The conditions noted are these: in vivo, read-out: beta t1/2 (converted).
A short description of data set [7]: Terminal half life in Sprague-Dawley rat at 3 mg/kg, iv. Type of data set: ADME, organism-based. The conditions noted are these: in vivo, read-out: beta t1/2 (converted). Set-up: dose 3 mg/kg, route intravenous.
Data set [8] is described as follows: Oral bioavailability in Sprague-Dawley rat. The data set is classed as ADME, organism-based. As to conditions: in vivo.
The nature of data set [9]: Oral bioavailability in dog. Type of data set: ADME, organism-based, Canis lupus familiaris. As to conditions: in vivo.
Data set [10] can be described thus: Drug excretion in bile duct-cannulated rat urine assessed as M + 2O-2H and M + O + glucuronide level at 5 mg/kg, po after 48 hrs. The data set is classed as ADME, organism-based. Set-up: dose 5 mg/kg, route oral. The conditions noted are these: in vivo.
Data set [11] in a line: Fraction unbound in human plasma at 10 uM by equilibrium dialysis method. Type of data set: ADME, cell-free.
Data set [12] relates to Rattus norvegicus. Nature of the data set: Antiobesity activity in diet-induced obese rat as reduction in body weight at 1 mg/kg, po after 28 days. The data set is classed as functional. Set-up: scale not given: the % may be the effect or the level left.
In data set [13] the test system is Rattus norvegicus. Nature of the data set: Drug excretion in bile duct-cannulated rat assessed as M + O + glucuronide level at 5 mg/kg, po. Type of data set: ADME, organism-based. Set-up: dose 5 mg/kg, route oral. As to conditions: in vivo.
A short description of data set [14]: Drug excretion in bile duct-cannulated rat at 5 mg/kg, po. Type of data set: ADME, organism-based. The arrangement: dose 5 mg/kg, route oral. As to conditions: read-out: Drug excretion.
The test system of data set [15] is Rattus norvegicus. Nature of the data set: Antiobesity activity in diet-induced obese rat as reduction in body weight at 3 mg/kg, po after 28 days. Type of data set: functional. Set-up: scale not given: the % may be the effect or the level left.
Data set [16] in a line: Drug excretion in bile duct-cannulated rat bile at 5 mg/kg, po after 48 hrs. The data set is classed as ADME, organism-based. The conditions noted are these: read-out: Drug excretion. Set-up: dose 5 mg/kg, route oral.
The target in data set [17] is Cytochrome P450 2C19 (Homo sapiens, UniProt P33261). Nature of the data set: Inhibition of human recombinant CYP2C19. The data set is classed as ADME.
The subject of data set [18] is Rattus norvegicus. Nature of the data set: Drug excretion in bile duct-cannulated rat assessed as M + 2O-2H level at 5 mg/kg, po. Type of data set: ADME, organism-based. The arrangement: dose 5 mg/kg, route oral. The conditions noted are these: in vivo.
Data set [19] in a line: Oral bioavailability in cynomolgus monkey. The data set is classed as ADME, organism-based, Macaca fascicularis. As to conditions: in vivo.
Data set [20] has as its system Rattus norvegicus. Nature of the data set: Antiobesity activity in rat assessed as reduction in body weight at 10 mg/kg after 4 days. The data set is classed as functional. Set-up: scale not given: the % may be the effect or the level left.
In data set [21] the test system is Rattus norvegicus. Kind of data set: Antiobesity activity in diet-induced obese rat as reduction in body weight at 10 mg/kg, po after 28 days. The data set is classed as functional. The arrangement: scale not given: the % may be the effect or the level left.
A short description of data set [22]: Drug excretion in bile duct-cannulated rat bile assessed as M + 2O-2H and M + O + glucuronide level at 5 mg/kg, po after 48 hrs. Type of data set: ADME, organism-based. Set-up: dose 5 mg/kg, route oral. The conditions noted are these: in vivo.
Data set [23] addresses Cytochrome P450 2C9 (Homo sapiens, UniProt P11712). Nature of the data set: Inhibition of human recombinant CYP2C9. The data set is classed as ADME.
Data set [24] is described as follows: Metabolic stability in rat hepatocytes assessed as compound remaining at 0.5 to 3 uM after 2 hrs by LC-MS/MS analysis. The data set is classed as ADME, cell-based, Hepatocyte. As to conditions: read-out: Stability.
Data set [25] is described as follows: Aqueous solubility of the compound. The data set is classed as physicochemical. The conditions noted are these: buffer.
For data set [26], the system named is Rattus norvegicus. Kind of data set: Antiobesity activity in rat assessed as reduction in body weight at 3 mg/kg after 4 days. The data set is classed as functional. Set-up: scale not given: the % may be the effect or the level left.
In data set [27] the target is Cytochrome P450 3A4 (Homo sapiens, UniProt P08684). Kind of data set: Inhibition of human recombinant CYP3A4.
The nature of data set [28]: Elimination half life in human. The data set is classed as ADME, organism-based. As to conditions: in vivo, read-out: beta t1/2 (converted).
Data set [29] has as its system Rattus norvegicus. Nature of the data set: Antiobesity activity in rat assessed as reduction in body weight at 10 mg/kg, qd after 4 days. Type of data set: functional. Set-up: scale not given: the % may be the effect or the level left.

Chain of Cytochrome P450 2C9 (P11712 whole entry): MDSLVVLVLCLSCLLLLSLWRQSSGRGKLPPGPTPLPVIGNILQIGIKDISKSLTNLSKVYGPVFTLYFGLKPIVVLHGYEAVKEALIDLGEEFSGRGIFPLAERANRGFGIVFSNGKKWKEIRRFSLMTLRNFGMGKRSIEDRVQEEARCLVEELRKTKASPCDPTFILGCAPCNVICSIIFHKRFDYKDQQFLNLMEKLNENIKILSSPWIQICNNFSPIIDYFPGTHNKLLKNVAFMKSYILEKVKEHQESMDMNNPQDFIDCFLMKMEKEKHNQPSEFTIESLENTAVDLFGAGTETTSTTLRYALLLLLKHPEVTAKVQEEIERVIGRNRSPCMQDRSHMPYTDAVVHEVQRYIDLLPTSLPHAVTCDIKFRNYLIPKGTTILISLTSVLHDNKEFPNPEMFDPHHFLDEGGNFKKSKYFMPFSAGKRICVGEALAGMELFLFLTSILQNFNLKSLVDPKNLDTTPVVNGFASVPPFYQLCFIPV
Chain of Cytochrome P450 2C19 (P33261 whole entry): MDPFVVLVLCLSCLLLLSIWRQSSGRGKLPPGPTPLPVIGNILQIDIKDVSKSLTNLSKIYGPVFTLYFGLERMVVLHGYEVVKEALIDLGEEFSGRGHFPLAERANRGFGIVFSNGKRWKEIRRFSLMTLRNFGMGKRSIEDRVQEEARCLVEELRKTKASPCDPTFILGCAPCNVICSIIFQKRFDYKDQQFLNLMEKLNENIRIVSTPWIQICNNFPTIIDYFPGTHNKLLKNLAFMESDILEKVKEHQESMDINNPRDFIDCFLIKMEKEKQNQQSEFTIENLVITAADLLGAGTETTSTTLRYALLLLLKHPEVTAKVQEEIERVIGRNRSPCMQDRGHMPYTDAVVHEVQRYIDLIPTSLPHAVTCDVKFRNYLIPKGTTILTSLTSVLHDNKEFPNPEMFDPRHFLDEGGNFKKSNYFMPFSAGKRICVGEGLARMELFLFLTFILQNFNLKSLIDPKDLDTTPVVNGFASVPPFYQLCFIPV
Chain of Cytochrome P450 3A4 (P08684 whole entry): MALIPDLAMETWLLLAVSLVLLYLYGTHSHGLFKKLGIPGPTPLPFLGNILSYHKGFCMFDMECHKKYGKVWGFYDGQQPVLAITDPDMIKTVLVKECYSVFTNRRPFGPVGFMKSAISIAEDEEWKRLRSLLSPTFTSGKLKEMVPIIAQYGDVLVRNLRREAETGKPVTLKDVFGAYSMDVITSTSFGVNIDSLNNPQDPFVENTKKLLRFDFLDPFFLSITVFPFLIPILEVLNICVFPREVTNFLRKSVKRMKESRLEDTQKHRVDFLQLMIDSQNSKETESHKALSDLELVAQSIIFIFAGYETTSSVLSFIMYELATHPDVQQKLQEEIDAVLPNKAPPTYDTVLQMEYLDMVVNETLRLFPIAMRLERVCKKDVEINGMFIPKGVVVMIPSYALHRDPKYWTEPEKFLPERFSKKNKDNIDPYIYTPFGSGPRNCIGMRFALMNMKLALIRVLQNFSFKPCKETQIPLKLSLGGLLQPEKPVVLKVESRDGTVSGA
Chain of Cannabinoid receptor 1 (P21554 whole entry): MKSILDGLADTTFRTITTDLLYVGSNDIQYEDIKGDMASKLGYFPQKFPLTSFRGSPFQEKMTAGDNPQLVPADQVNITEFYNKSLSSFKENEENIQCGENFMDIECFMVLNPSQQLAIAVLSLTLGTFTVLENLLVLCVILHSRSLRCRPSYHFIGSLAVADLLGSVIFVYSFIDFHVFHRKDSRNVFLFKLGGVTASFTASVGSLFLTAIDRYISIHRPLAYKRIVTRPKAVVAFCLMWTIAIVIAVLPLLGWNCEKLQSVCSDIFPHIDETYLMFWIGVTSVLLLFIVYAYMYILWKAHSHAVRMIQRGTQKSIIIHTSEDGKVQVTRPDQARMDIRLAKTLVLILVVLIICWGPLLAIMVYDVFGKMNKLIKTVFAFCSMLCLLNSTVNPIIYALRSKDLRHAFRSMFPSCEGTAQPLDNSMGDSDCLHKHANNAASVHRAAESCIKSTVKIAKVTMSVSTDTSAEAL

As for `CCn1nc2c(-c3ccc(Cl)cc3)c(-c3ccc(C#N)c(C)c3)c(=O)n(Cc3ccc(C(F)(F)F)nc3C)n2c1=O`, the affinity in data set [1] corresponds to a Ki of 3 nM. Also, in [2], the CLH amounted to 0 nmol/min/mg. The lipophilicity (logP) in data set [3] is 5.

In data set [1], `CCc1nc(C(F)(F)F)ccc1Cn1c(=O)c(-c2ccc(C#N)cc2)c(-c2ccc(Cl)cc2)c2nn(CC)c(=O)n21` showed a Ki of 1.6 nM. Moreover, in data set [2], the CLH was 0.152 nmol/min/mg. In addition, the logP in data set [3] is 5.

In the case of `Cc1nc(C(F)(F)F)ccc1Cn1c(=O)c(-c2ccc(C#N)cc2)c(-c2ccc(Cl)cc2)c2nn(C(C)C)c(=O)n21`, in [1], the Ki was 1.9 nM. Moreover, in data set [2], the CLH is 0.014 nmol/min/mg. The compound also yielded a logP in [3] of 5.2.

In data set [1], `CCn1nc2c(-c3ccc(Cl)cc3)c(-c3ccc(C#N)cc3)c(=O)n(Cc3ccc(C)cc3)n2c1=O` had a Ki of 12 nM. This compound yielded a logP in [3] of 5.2.

Compound `CCn1nc2c(-c3ccc(C)cc3)c(-c3ccc(C#N)cc3)c(=O)n(Cc3ccc(C(F)(F)F)nc3C)n2c1=O` had a Ki in data set [1] of 2.9 nM. In data set [2], this compound registered a CLH of 0.052 nmol/min/mg. This compound yielded a logP in [3] of 4.6.

The compound `CCn1nc2c(-c3ccc(Cl)cc3)c(-c3ccc(C#N)cc3)c(=O)n(Cc3ccc(C#N)cc3)n2c1=O` had a Ki in data set [1] of 5 nM. Further, the results for the half-life in data set [4] and in data set [6] were 45 h and 8 h, respectively. The compound also yielded a logP in [3] of 4.2. The compound also gave a fraction unbound at 10 µM in [5] of 0.01.

For `CCn1nc2c(-c3ccc(Cl)cc3)c(-c3ccc(CO)nc3)c(=O)n(Cc3ccc(C(F)(F)F)nc3C)n2c1=O`, the affinity in data set [1] corresponds to a Ki of 5 nM. For the same compound, the half-life in [7] was 1.1 h; in data set [4], 7 h; in data set [6], 9 h. For the same compound, the logP in data set [3] was 3.6. The same compound had a fraction unbound at 10 µM in [5] of 0.09.

Take `CCn1nc2c(-c3ccc(Cl)cc3)c(-c3cnc(C)nc3)c(=O)n(Cc3ccc(C(F)(F)F)nc3C)n2c1=O`: the Ki in data set [1] was found to be 4.7 nM. Also, the bioavailability in data set [8] was found to be 73%; in data set [9], 75%; in data set [19], 51%. Also, the half-life in [7] was 5 h; in data set [4], 42 h; in [6] it was 12 h. Besides, the Drug excretion stood at 7 %ID in [10], 26 %ID in data set [13], 36 %ID in data set [18] and 76 %ID in data set [22]. For the same compound, the fraction unbound at 10 µM amounted to 0.07 in data set [11] and 0.13 in data set [5]. Also, the Activity is 2.4% in data set [12]; 4.1% in [15]; 7.2% in [20]; 10.2% in data set [21]; 2.8% in data set [26]. The dose excreted in [14] was less than 1%. Besides, in [16], the dose excreted at 48 h is 0.8%. Besides, the IC50 in [17], in data set [23] and in data set [27] was greater than 40000 nM throughout. The compound also yielded a logP in data set [3] of 3.8. In addition, in data set [24], the remaining at 2 h, 3 µM turned out to be 5%. This compound also registered a solubility in [25] of 17 µg/mL (≈ 30.6 µM).

In turn, `CCn1nc2c(-c3ccc(Cl)cc3)c(-c3ccncc3F)c(=O)n(Cc3ccc(C(F)(F)F)nc3C)n2c1=O` returned a Ki in data set [1] of 3.2 nM. In addition, the IC50 in data set [17] was 5000 nM; in data set [23], 14000 nM; in data set [27] it was 7000 nM. Besides, the logP in [3] is 4.3.

In data set [1], `CCn1nc2c(-c3ccc(Cl)cc3)c(-c3cnn(C)c3)c(=O)n(Cc3ccc(C#N)cc3)n2c1=O` yielded a Ki of 92 nM. In addition, the IC50 in data set [17] is greater than 40000 nM; in [23], greater than 40000 nM; in data set [27] it was 3400 nM. The compound also yielded a logP in [3] of 3.8.

`CCn1nc2c(-c3ccc(Cl)cc3)c(-c3cnc(N(C)C)nc3)c(=O)n(Cc3ccc(C#N)cc3)n2c1=O` yielded a Ki in [1] of 77 nM. Further, the IC50 in data set [17], in data set [23] and in data set [27] was greater than 40000 nM each time. The logP in data set [3] turned out to be 4.3.

For `CCNC1(C(N)=O)CCN(c2ncnc3c2nc(-c2ccccc2Cl)n3-c2ccc(Cl)cc2)CC1` [OTENABANT], in [28], the half-life was 120 h.

`Cc1c(C(=O)NN2CCCCC2)nn(-c2ccc(Cl)cc2Cl)c1-c1ccc(Cl)cc1` [RIMONABANT]: the Activity in data set [21] is on record as 6.2%; in data set [29], 5%. The half-life in [28] is 216 h.

Take `C[C@H](NC(=O)C(C)(C)Oc1ccc(C(F)(F)F)cn1)[C@@H](Cc1ccc(Cl)cc1)c1cccc(C#N)c1` [TARANABANT]: the half-life in [28] was 72 h.
